The target in the assay is T1, recombinant human NaV1.8 stably transfected HEK cells (Homo sapiens, UniProt Q9Y5Y9).
T1 construct: expressed in transfected cells; host or cells: HEK cells, stably transfected
The assay is described as follows: Compound profiling on NaV1.8, human NaV1.8 cell line, SyncroPatch384PE automated patch clamp assay (Example 102, first set of compounds, Table 16). The format is cell-based. The following applies: human NaV1.8 HEK cells, Table 16 (first set of compounds). Put shortly: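 IC50s come from two read-outs: resting-state block (P1, 10 mV step from −120 mV) and inactivated-state block (P2, after 10 s at −40 mV), scaled between DMSO and 250 μM tetracaine. Compounds (20–0.001 μM final, 1:3 steps) were applied for 5 min, 15 s sweeps. Cells kept at 30 °C the day before.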

Setting [1] is: inactivated state block (P2 measurement), read-out: P2IC50.
[2] abbreviates: resting state block (P1 measurement), read-out: P1IC50.

Structures are written as SMILES. Where two headings read alike, the source gives them in different places.

T1 sequence (Q9Y5Y9 whole entry): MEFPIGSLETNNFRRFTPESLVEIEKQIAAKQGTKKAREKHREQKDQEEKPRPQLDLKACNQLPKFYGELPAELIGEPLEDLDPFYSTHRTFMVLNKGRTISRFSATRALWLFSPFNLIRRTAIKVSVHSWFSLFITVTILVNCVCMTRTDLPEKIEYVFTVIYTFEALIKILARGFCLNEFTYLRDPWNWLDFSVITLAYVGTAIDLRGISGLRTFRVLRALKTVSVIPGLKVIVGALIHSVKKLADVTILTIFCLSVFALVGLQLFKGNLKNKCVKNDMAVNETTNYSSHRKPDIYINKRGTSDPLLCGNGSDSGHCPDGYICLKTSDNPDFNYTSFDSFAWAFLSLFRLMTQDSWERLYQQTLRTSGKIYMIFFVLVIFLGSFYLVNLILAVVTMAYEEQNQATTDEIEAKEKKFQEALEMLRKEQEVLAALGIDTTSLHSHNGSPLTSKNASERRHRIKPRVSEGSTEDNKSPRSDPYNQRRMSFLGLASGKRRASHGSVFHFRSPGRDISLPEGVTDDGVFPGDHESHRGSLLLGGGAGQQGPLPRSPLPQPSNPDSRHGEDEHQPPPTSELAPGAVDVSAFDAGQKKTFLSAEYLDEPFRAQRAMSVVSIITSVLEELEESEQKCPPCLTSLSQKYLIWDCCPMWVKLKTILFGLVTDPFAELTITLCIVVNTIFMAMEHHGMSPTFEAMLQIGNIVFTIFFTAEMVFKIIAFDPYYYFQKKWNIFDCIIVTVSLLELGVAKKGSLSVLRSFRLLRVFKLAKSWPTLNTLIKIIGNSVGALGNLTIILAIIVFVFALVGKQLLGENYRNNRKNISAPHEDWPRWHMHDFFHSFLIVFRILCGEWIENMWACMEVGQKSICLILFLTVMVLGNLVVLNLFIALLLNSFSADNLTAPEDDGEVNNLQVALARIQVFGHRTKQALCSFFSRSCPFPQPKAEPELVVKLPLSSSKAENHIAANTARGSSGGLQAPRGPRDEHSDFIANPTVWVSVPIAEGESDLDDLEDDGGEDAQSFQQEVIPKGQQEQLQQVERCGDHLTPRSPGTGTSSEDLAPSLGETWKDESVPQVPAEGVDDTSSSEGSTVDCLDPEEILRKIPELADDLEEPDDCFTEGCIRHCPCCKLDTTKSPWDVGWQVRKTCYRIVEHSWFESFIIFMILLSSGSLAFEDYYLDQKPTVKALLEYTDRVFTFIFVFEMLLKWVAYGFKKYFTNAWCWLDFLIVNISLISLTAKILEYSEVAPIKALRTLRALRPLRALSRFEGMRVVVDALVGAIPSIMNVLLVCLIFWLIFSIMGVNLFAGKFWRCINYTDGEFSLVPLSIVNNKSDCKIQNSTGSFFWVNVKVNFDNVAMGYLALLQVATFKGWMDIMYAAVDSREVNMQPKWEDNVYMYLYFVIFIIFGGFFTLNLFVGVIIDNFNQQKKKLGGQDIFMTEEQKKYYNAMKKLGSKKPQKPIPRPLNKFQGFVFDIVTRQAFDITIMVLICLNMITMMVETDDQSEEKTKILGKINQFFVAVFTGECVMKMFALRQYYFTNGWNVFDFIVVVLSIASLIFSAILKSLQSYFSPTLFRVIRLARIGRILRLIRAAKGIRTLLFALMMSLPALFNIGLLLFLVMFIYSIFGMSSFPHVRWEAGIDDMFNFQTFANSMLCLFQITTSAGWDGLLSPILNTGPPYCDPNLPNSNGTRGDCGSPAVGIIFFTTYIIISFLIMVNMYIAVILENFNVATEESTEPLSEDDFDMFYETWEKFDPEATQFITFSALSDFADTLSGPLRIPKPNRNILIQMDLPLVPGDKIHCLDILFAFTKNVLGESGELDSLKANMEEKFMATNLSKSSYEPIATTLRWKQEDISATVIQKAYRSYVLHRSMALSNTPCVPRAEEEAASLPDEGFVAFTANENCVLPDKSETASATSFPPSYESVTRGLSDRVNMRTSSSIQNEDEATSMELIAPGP

`COc1c(Oc2nnc(C)c(C)c2C(=O)Nc2cccc(S(C)(=N)=O)c2)ccc(F)c1F` (centres unmarked) [Compound 1435, 3-(3,4-difluoro-2-methoxyphenoxy)-5,6-dimethyl-N-(3-(S-methylsulfonimidoyl)phenyl)pyridazine-4-carboxamide]: the IC50 was 200 to 500 nM under setting [1] and 200 to 500 nM under setting [2].
`COc1cc(C#N)ccc1Oc1nnc(-c2ccccc2)c(C)c1C(=O)Nc1cccc(S(C)(=N)=O)c1` (centres unmarked) [Compound 1436, 3-(4-cyano-2-methoxyphenoxy)-5-methyl-N-(3-(S-methylsulfonimidoyl)phenyl)-6-phenylpyridazine-4-carboxamide]: the IC50 is 40 to 200 nM under setting [1] and 20 to 40 nM under setting [2].
Turning to `COc1cc(C#N)ccc1Oc1nnc(C(F)(F)F)c(C)c1C(=O)Nc1cccc(C(=O)N2CC(O)C2)c1` [Compound 1437, 3-(4-cyano-2-methoxy-phenoxy)-N-[3-(3-hydroxyazetidine-1-carbonyl)phenyl]-5-methyl-6-(trifluoromethyl)pyridazine-4-carboxamide], the IC50 by setting is: under setting [1], 40 to 200 nM; under setting [2], 40 to 200 nM.
As for `COc1cc(C#N)ccc1Oc1nnc(C(F)(F)F)c(C)c1C(=O)Nc1cccc(C(=O)N2CCNCC2)c1` [Compound 1438, 3-(4-cyano-2-methoxy-phenoxy)-5-methyl-N-[3-(piperazine-1-carbonyl)phenyl]-6-(trifluoromethyl)pyridazine-4-carboxamide], the IC50 lay within 40 to 200 nM under setting [1] and 40 to 200 nM under setting [2].
For `COCCNS(=O)(=O)c1cccc(NC(=O)c2c(Oc3ccc(C#N)cc3OC)nnc(C(F)(F)F)c2C)c1` [Compound 1439, 3-(4-cyano-2-methoxy-phenoxy)-N-[3-(2-methoxyethylsulfamoyl)phenyl]-5-methyl-6-(trifluoromethyl)pyridazine-4-carboxamide], the IC50 by setting is: under setting [1], 40 to 200 nM; under setting [2], 40 to 200 nM.
For `COc1cc(C#N)ccc1Oc1nnc(C(F)(F)F)c(C)c1C(=O)Nc1cccc(C(=O)NCC2(F)CC2)c1` [Compound 1440, 3-(4-cyano-2-methoxy-phenoxy)-N-[3-[(1-fluorocyclopropyl)methylcarbamoyl]phenyl]-5-methyl-6-(trifluoromethyl)pyridazine-4-carboxamide], the IC50 runs as follows: under setting [1], 200 to 500 nM; under setting [2], 200 to 500 nM.
With `COc1cc(C#N)ccc1Oc1nnc(C(F)(F)F)c(C)c1C(=O)Nc1cccc(C(=O)NCCO)c1` [Compound 1441, 3-(4-cyano-2-methoxy-phenoxy)-N-[3-(2-hydroxyethylcarbamoyl)phenyl]-5-methyl-6-(trifluoromethyl)pyridazine-4-carboxamide], the IC50 was in the range of 200 to 500 nM under setting [1] and 200 to 500 nM under setting [2].
For the molecule `COc1cc(C#N)ccc1Oc1nnc(C(F)(F)F)c(C)c1C(=O)Nc1cccc(C(=O)N2CC(C#N)C2)c1` [Compound 1442, N-[3-(3-cyanoazetidine-1-carbonyl)phenyl]-3-(4-cyano-2-methoxy-phenoxy)-5-methyl-6-(trifluoromethyl)pyridazine-4-carboxamide], the IC50 reads like this: under setting [1], 200 to 500 nM; under setting [2], 200 to 500 nM.
As for `COCCNC(=O)c1cccc(NC(=O)c2c(Oc3ccc(C#N)cc3OC)nnc(C(F)(F)F)c2C)c1` [Compound 1443, 3-(4-cyano-2-methoxy-phenoxy)-N-[3-(2-methoxyethylcarbamoyl)phenyl]-5-methyl-6-(trifluoromethyl)pyridazine-4-carboxamide], the IC50 runs as follows: under setting [1], 200 to 500 nM; under setting [2], 200 to 500 nM.
As to `COc1cc(C#N)ccc1Oc1nnc(C(F)(F)F)c(C)c1C(=O)Nc1cccc(C(=O)NC2CCCC2C(N)=O)c1` (centres unmarked) [Compound 1444, N-[3-[(2-carbamoylcyclopentyl)carbamoyl]phenyl]-3-(4-cyano-2-methoxy-phenoxy)-5-methyl-6-(trifluoromethyl)pyridazine-4-carboxamide], the IC50 by setting is: under setting [1], 200 to 500 nM; under setting [2], 200 to 500 nM.
Consider `COc1cc(C#N)ccc1Oc1nnc(C(F)(F)F)c(C)c1C(=O)Nc1cccc(C(=O)NC2CCCC2C#N)c1` (centres unmarked) [Compound 1445, N-[3-[(2-cyanocyclopentyl)carbamoyl]phenyl]-3-(4-cyano-2-methoxy-phenoxy)-5-methyl-6-(trifluoromethyl)pyridazine-4-carboxamide], for which the IC50 reads like this: under setting [1], 200 to 500 nM; under setting [2], 200 to 500 nM.
For the molecule `COc1cc(C#N)ccc1Oc1nnc(-c2ccc(C#N)cc2)c(C)c1C(=O)Nc1cccc(S(C)(=N)=O)c1` (centres unmarked) [Compound 1446, 3-(4-cyano-2-methoxy-phenoxy)-6-(4-cyanophenyl)-5-methyl-N-[3-(methylsulfonimidoyl)phenyl]pyridazine-4-carboxamide], the IC50 under setting [1] lay within 20 to 40 nM and the IC50 under setting [2] was in the range of 20 to 40 nM.
With `COc1cc(C#N)ccc1Oc1nnc(-c2cncn2C)c(C)c1C(=O)Nc1cccc(S(C)(=N)=O)c1` (centres unmarked) [Compound 1447, 3-(4-cyano-2-methoxy-phenoxy)-5-methyl-6-(3-methylimidazol-4-yl)-N-[3-(methylsulfonimidoyl)phenyl]pyridazine-4-carboxamide], the IC50 reads like this: under setting [1], 20 to 40 nM; under setting [2], 20 to 40 nM.
Regarding `COc1cc(C#N)ccc1Oc1nnc(-c2ccn(C)n2)c(C)c1C(=O)Nc1cccc(S(C)(=N)=O)c1` (centres unmarked) [Compound 1448, 3-(4-cyano-2-methoxy-phenoxy)-5-methyl-6-(1-methylpyrazol-3-yl)-N-[3-(methylsulfonimidoyl)phenyl]pyridazine-4-carboxamide], the IC50 runs as follows: under setting [1], 200 to 500 nM; under setting [2], 200 to 500 nM.
On to `COc1cc(C#N)ccc1Oc1nnc(-c2cnc(C)s2)c(C)c1C(=O)Nc1cccc(S(C)(=N)=O)c1` (centres unmarked) [Compound 1449, 3-(4-cyano-2-methoxy-phenoxy)-5-methyl-N-[3-(methylsulfonimidoyl)phenyl]-6-(2-methylthiazol-5-yl)pyridazine-4-carboxamide], for which the IC50 reads like this: under setting [1], 200 to 500 nM; under setting [2], 200 to 500 nM.
Regarding `COc1cc(C#N)ccc1Oc1nnc(-c2ccc(C)cc2)c(C)c1C(=O)Nc1cccc(S(C)(=N)=O)c1` (centres unmarked) [Compound 1450, 3-(4-cyano-2-methoxy-phenoxy)-5-methyl-N-[3-(methylsulfonimidoyl)phenyl]-6-(p-tolyl)pyridazine-4-carboxamide], the IC50 is, setting by setting: under setting [1], not above 20 nM; under setting [2], not above 20 nM.
With `COc1cc(C#N)ccc1Oc1nnc(-c2cccc(C#N)c2)c(C)c1C(=O)Nc1cccc(S(C)(=N)=O)c1` (centres unmarked) [Compound 1451, 3-(4-cyano-2-methoxy-phenoxy)-6-(3-cyanophenyl)-5-methyl-N-[3-(methylsulfonimidoyl)phenyl]pyridazine-4-carboxamide], the IC50 is, setting by setting: under setting [1], 200 to 500 nM; under setting [2], 200 to 500 nM.
As for `COc1cc(C#N)ccc1Oc1nnc(-c2ccccc2F)c(C)c1C(=O)Nc1cccc(S(C)(=N)=O)c1` (centres unmarked) [Compound 1452, 3-(4-cyano-2-methoxy-phenoxy)-6-(2-fluorophenyl)-5-methyl-N-[3-(methylsulfonimidoyl)phenyl]pyridazine-4-carboxamide], the IC50 under setting [1] fell in the range of 40 to 200 nM and the IC50 under setting [2] fell in the range of 40 to 200 nM.
On to `COc1cc(C#N)ccc1Oc1nnc(-c2ccc(C(F)F)cc2)c(C)c1C(=O)Nc1cccc(S(C)(=N)=O)c1` (centres unmarked) [Compound 1453, 3-(4-cyano-2-methoxy-phenoxy)-6-[4-(difluoromethyl)phenyl]-5-methyl-N-[3-(methylsulfonimidoyl)phenyl]pyridazine-4-carboxamide], for which the IC50 by setting is: under setting [1], not above 20 nM; under setting [2], not above 20 nM.
Regarding `COc1ccc(-c2nnc(Oc3ccc(C#N)cc3OC)c(C(=O)Nc3cccc(S(C)(=N)=O)c3)c2C)cc1` (centres unmarked) [Compound 1454, 3-(4-cyano-2-methoxy-phenoxy)-6-(4-methoxyphenyl)-5-methyl-N-[3-(methylsulfonimidoyl)phenyl]pyridazine-4-carboxamide], the IC50 reads like this: under setting [1], not above 20 nM; under setting [2], not above 20 nM.
For `COc1cc(C#N)ccc1Oc1nnc(-c2ccc(C)nc2)c(C)c1C(=O)Nc1cccc(S(C)(=N)=O)c1` (centres unmarked) [Compound 1455, 3-(4-cyano-2-methoxy-phenoxy)-5-methyl-6-(6-methyl-3-pyridyl)-N-[3-(methylsulfonimidoyl)phenyl]pyridazine-4-carboxamide], the IC50 reads like this: under setting [1], 200 to 500 nM; under setting [2], 200 to 500 nM.
Turning to `COc1cc(C#N)ccc1Oc1nnc(-c2ccnnc2)c(C)c1C(=O)Nc1cccc(S(C)(=N)=O)c1` (centres unmarked) [Compound 1456, 3-(4-cyano-2-methoxy-phenoxy)-5-methyl-N-[3-(methylsulfonimidoyl)phenyl]-6-pyridazin-4-yl-pyridazine-4-carboxamide], the IC50 under setting [1] is 200 to 500 nM and the IC50 under setting [2] fell in the range of 200 to 500 nM.
`COc1cc(C#N)ccc1Oc1nnc(-c2cnc(C)nc2)c(C)c1C(=O)Nc1cccc(S(C)(=N)=O)c1` (centres unmarked) [Compound 1457, 3-(4-cyano-2-methoxy-phenoxy)-5-methyl-6-(2-methylpyrimidin-5-yl)-N-[3-(methylsulfonimidoyl)phenyl]pyridazine-4-carboxamide]: the IC50 lay within 200 to 500 nM under setting [1] and 200 to 500 nM under setting [2].
In the case of `COc1cc(C#N)ccc1Oc1nnc(-c2ccccn2)c(C)c1C(=O)Nc1cccc(S(C)(=N)=O)c1` (centres unmarked) [Compound 1458, 3-(4-cyano-2-methoxyphenoxy)-5-methyl-N-(3-(S-methylsulfonimidoyl)phenyl)-6-(pyridin-2-yl)pyridazine-4-carboxamide], the IC50 was in the range of 200 to 500 nM under setting [1] and 200 to 500 nM under setting [2].
Regarding `COc1cc(C#N)ccc1Oc1nnc(-c2cnc(C(F)(F)F)s2)c(C)c1C(=O)Nc1cccc(S(C)(=N)=O)c1` (centres unmarked) [Compound 1459, 3-(4-cyano-2-methoxy-phenoxy)-5-methyl-N-[3-(methylsulfonimidoyl)phenyl]-6-[2-(trifluoromethyl)thiazol-5-yl]pyridazine-4-carboxamide], the IC50 was not above 20 nM under setting [1] and not above 20 nM under setting [2].
